Six molecules from patent US20090022806A1, “Nanoparticle and polymer formulations for thyroid hormone analogs, antagonists and formulations and uses thereof” (priority 2006, published 2009) can be followed below.

One data set is described as follows: Solubility. It is filed as physicochemical. The following applies: in water after preparing a solution at 10^−1 M in DMSO. Here is the method:
Yield: 50%; off-white solid; recrist. solvt.: EtOH; TLC: Rf=0.43 (EtOAc/EtOH 9/1); RPTLC: Rf=0.43 (AcOH/H2O 8/2); mp=136° C.; IR (ν cm^−1): 1730 (CO); ^1H NMR (DMSO-d6) δ (ppm): 7.79 (s, 2H, ArH), 7.14 (s, 2H, ArH), 4.06-4.02 (m, 2H, CH2), 3.93-3.89 (q, J=7.0 Hz, 2H, CH2), 3.59-3.56 (t, J=7.0 Hz, 1H, CH), 2.80-2.77 (m, 2H, CH2), 1.88 (br, 1H, NH), 1.41-1.39 (t, J=7.0 Hz, 3H, CH3), 1.15-1.12 (t, J=7.0 Hz, 3H, CH3); MS (ESI+) m/z 911.7 [(M+DMSO)^+, 100], 833.7 [(M+H)+, 75]; Anal. Calcd. for C19H19I4NO4: C, 27.40; H, 2.30; N, 1.68. Found: C, 27.54; H, 1.94; N, 1.66. Solubility 10^−3 M in water after preparing a solution at 10^−1 M in DMSO. It is noteworthy that if a suspension of L-T4 is prepared overnight, the yield can be increased.

For data set [1], the system named is phosphorylated ERK1/2 in ECV304 endothelial cells. The data set is described as follows: MAPK (ERK1/2) activation in ECV304 cells, nuclear pERK1/2 immunoblot. Conditions: PD 98059 30 μmol/L or CGP41251 100 nmol/L for 30 minutes before 10^−7 M T4. It is filed as cell-based. The method, then: ECV304 endothelial cells were cultured in M199 medium with 0.25% hormone-depleted serum 13 for 2 days. […] Nuclear fractions were pre-pared from all samples by our method reported previously, the proteins separated by polyacrylamide gel electrophoresis, and transferred to membranes for immunoblotting with antibody to phosphorylated ERK 1/2.
For orientation: In western blotting, separated proteins are transferred to a membrane and probed.

Data set [2] concerns chick chorioallantoic membrane (CAM). Kind of data set: Chick chorioallantoic membrane (CAM) assay of angiogenesis. It is filed as in vivo. The method, then: Chorioallantoic membrane (CAM) Model of Angiogenesis: In vivo Neovascularization was examined by methods described previously. 9-12 Ten-day-old chick embryos were purchased from SPAFAS (Preston, Conn.) and incubated at 37° C. with 55% relative humidity. A hypodermic needle was used to make a small hole in the shell concealing the air sac, and a second hole was made on the broad side of the egg, directly over an avascular portion of the embryonic membrane that was identified by candling. A false air sac was created beneath the second hole by the application of negative pressure at the first hole, causing the CAM to separate from the shell. A window approximately 1.0 cm 2 was cut in the shell over the dropped CAM with a small-crafts grinding wheel (Dremel, division of Emerson Electric Co.), allowing direct access to the underlying CAM. FGF2 (1 μg/mL) was used as a standard proangiogenic agent to induce new blood vessel branches on the CAM of 10-day-old embryos. Sterile disks of No. 1 filter paper (Whatman International) were pretreated with 3 mg/mL cortisone acetate and 1 mmol/L PTU and air dried under sterile conditions. Thyroid hormone, hormone analogues, FGF2 or control solvents, and inhibitors were then applied to the disks and the disks allowed to dry. The disks were then suspended in PBS and placed on growing CAMs. […] At 24 hours, the MAPK cascade inhibitor PD 98059 was also added to CAMs topically by means of the filter disks.
After incubation at 37° C. with 55% relative humidity for 3 days, the CAM tissue directly beneath each filter disk was resected from control and treated CAM samples. Tissues were washed 3× with PBS, placed in 35-mm Petri dishes (Nalge Nunc), and examined under an SV6 stereomicroscope (Zeiss) at ×50 magnification. Digital images of CAM sections exposed to filters were collected using a 3-charge-coupled device color video camera system (Toshiba) and analyzed with Image-Pro software (Media Cybernetics). The number of vessel branch points contained in a circular region equal to the area of each filter disk were counted. One image was counted in each CAM preparation, and findings from 8 to 10 CAM preparations were analyzed for each treatment condition (thyroid hormone or analogues, FGF2, FGF2 antibody, PD 98059). In addition, each experiment was performed 3 times. The resulting angiogenesis index is the mean±SEM of new branch points in each set of samples.
Ten-day-old chick embryos were purchased £tom SPAFAS (Preston, Conn.) and were incubated at 37° C. with 55% relative humidity. A hypodermic needle was used to make a small hole in the blunt end of the egg and a second hole was made on the broad side of the egg, directly over an avascular portion of the embryonic membrane. Mild suction was applied to the first hole to displace the air sac and drop the CAM away from the shell. Using a Dremel model craft drill (Dremel, Racine, Wis.), a approx. 1.0 cm^2 window was cut in the shell over the false air sac, allowing access to the CAM. Sterile disks of No. 1 filter paper (Whatman, Clifton, N.J.) were pretreated with 3 mg/ml cortisone acetate and 1 mMm propylthiouracil and air dried under sterile conditions. […] The disks were then suspended in PBS and placed on growing CAMS. After incubation for 3 days, the CAM beneath the filter disk was resected and rinsed with PBS. Each membrane was placed in a 35 mm Petri dish and examined under an SV6 stereo-microscope at 50× magnification. Digital images were captured and analyzed with Image-Pro software (Mediacybemetics). The number of vessel branch points contained in a circular region equal to the filter disk were counted. One image from each of 8-10 CAM preparations for each treatment condition was counted, and in addition each experiment was performed 3 times.
Ten-day-old chick embryos were purchased from SPAFAS (Preston, Conn.) and were incubated at 37° C. with 55% relative humidity. Chick CAM assays were performed as previously described.

For data set [3], the system named is Human dermal micro-vascular endothelial cells (HDMEC). Kind of data set: Three-dimensional human micro-vascular endothelial sprouting assay. It is filed as cell-based. The following applies: tetrac 0.1 μM; PD 98059; XT199. Here is the method:
In Vitro Three-Dimensional Sprout Angiogenesis of Human Dermal Micro-Vascular Endothelial Cells (HDMEC) Cultured on Micro-Carrier Beads Coated with Fibrin: Confluent HDMEC (passages 5-10) were mixed with gelatin-coated Cytodex-3 beads with a ratio of 40 cells per bead. Cells and beads (150-200 beads per well for 24-well plate) were suspended with 5 ml EBM+15% normal human serum, mixed gently every hour for first 4 hours, then left to culture in a CO2 incubator overnight. The next day, 10 ml of fresh EBM+5% HS were added, and the mixture was cultured for another 3 hours. Before experiments, the culture of EC-beads was checked; then 500 ul of PBS was added to a well of 24-well plate, and 100 ul of the EC-bead culture solution was added to the PBS. The number of beads was counted, and the concentration of EC/beads was calculated.
A fibrinogen solution (1 mg/ml) in EBM medium with or without angiogenesis factors or testing factors was prepared. For positive control, 50 ng/ml VEGF+25 ng/ml FGF2 was used. EC-beads were washed with EBM medium twice, and EC-beads were added to fibrinogen solution. The experiment was done in triplicate for each condition. The EC-beads were mixed gently in fibrinogen solution, and 2.5 ul human thrombin (0.05 U/ul) was added in 1 ml fibrinogen solution; 300 ul was immediately transferred to each well of a 24-well plate. The fibrinogen solution polymerizes in 5-10 minutes; after 20 minutes, we added EBM+20% normal human serum+10 ug/ml aprotinin. The plate was incubated in a CO2 incubator. It takes about 24-48 hours for HDMEC to invade fibrin gel and form tubes.
A micro-carrier in vitro angiogenesis assay previously designed to investigate bovine pulmonary artery endothelial cell angiogenic behavior in bovine fibrin gels [Nehls and Drenckhahn, 1995a, b] was modified for the study of human microvascular endothelial cell angiogenesis in three-dimensional ECM environments (FIGS. 1 and 2). Briefly, human fibrinogen, isolated as previously described [Feng et al, 1999], was dissolved in M199 medium at a concentration of 1 mg/ml (pH 7.4) and sterilized by filtering through a 0.22 micron filter. An isotonic 1.5 mg/ml collagen solution was prepared by mixing sterile Vitrogen 100 in 5×M199 medium and distilled water. The pH was adjusted to 7.4 by 1N NaOH. In certain experiments, growth factors and ECM proteins (such as VEGF, bFGF, PDGF-BB, serum, gelatin, and fibronectin) were added to the fibrinogen or collagen solutions. About 500 EC-beads were then added to the 1 mg/ml fibrinogen or 1.5 mg/ml collagen solutions. Subsequently, EC-beads-collagen or EC-beads-fibrinogen suspension (500 EC-beads/ml) was plated onto 24-well plates at 300 ul/well. EC-bead-collagen cultures were incubated at 37° C. to form gel. The gelling of EC-bead-fibrin cultures occurred in less than 5 minutes at room temperature after the addition of thrombin to a final concentration of 0.5 U/ml. After gelation, 1 ml of fresh assay medium (EBM supplemented with 20% normal human serum for HDMEC or EBM supplemented with 10% fetal bovine serum was added to each well. The angiogenic response was monitored visually and recorded by video image capture. Specifically, capillary sprout formation was observed and recorded with a Nikon Diaphot-TMD inverted microscope (Nikon Inc.; Melville, N.Y.), equipped with an incubator housing with a Nikon NP-2 thermostat and Sheldon #2004 carbon dioxide flow mixer. The microscope was directly interfaced to a video system consisting of a Dage-MTI CCD-72S video camera and Sony 12″ PVM-122 video monitor linked to a Macintosh G3 computer. The images were captured at various magnifications using Adobe Photoshop. The effect of angiogenic factors on sprout angiogenesis was quantified visually by determining the number and percent of EC-beads with capillary sprouts. One hundred beads (five to six random low power fields) in each of triplicate wells were counted for each experimental condition. All experiments were repeated at least three times. […]

Data set [4] in a line: Doxorubicin-resistant tumor xenograft in nude mice. Conditions: CD1 nude, mouse, in vivo. The method, then:
(§1) Strain CD1 nude mice were obtained from Charles River Laboratories (Wilmington, Mass.) at approximately 5-6 weeks of age and weighing approximately 30 g. Animals received s.c. implantation of doxorubicin-resistant MCF7/R cells (10^6 cells in 100 μl). When tumors were approximately 50 mm^3 in size, the animals were pair matched and divided into four groups of five mice as follows: a) vehicle treated controls, b) mice treated with tetrac (30 mg/kg), c) mice treated doxorubicin (2 mg/kg), d) mice treated with the combination of both drugs. A total of three injections (separated by 3 days) were performed. Mice were weighed, checked for clinical signs of drug toxicity and lethality. Tumor measurements were made with a caliper three times weekly for up to 3 weeks and converted to tumor volume by using the formula W×L^2/2. Tumor growth curves were generated.

The test system of data set [5] is doxorubicin-resistant MCF7/R cells. The data set is described as follows: Doxorubicin-resistant tumor xenograft in nude mice. The following applies: doxorubicin alone 2 mg/kg, three injections. The method, then:
as §1

For another data set, the system named is NG108-15 cells. The data set is described as follows: cells. The following applies: Homo sapiens, NG108-15, read-out: Half maximal inhibition of cell-cell adhesion.
The test system of data set [6] is EC migration toward the extracellular matrix protein vitronectin. The data set is described as follows: Cellular migration assay toward vitronectin (chemotaxis chamber). It is filed as cell-based. The following applies: Vitronectin 25 ug in lower chamber alone.
Experimental: These assays were performed using a Neuroprobe 96 well disposable chemotaxis chamber with an 8 μm pore size. This chamber allowed for quantitation of cellular migration towards a gradient of either vitronectin or osteopontin. Cultured cells were removed following a standardized method using EDTA/Trypsin (0.01%/0.025%). Following removal, the cells were washed twice and resuspended (2×10^6/ml) in EBM (Endothelial cell basal media, Clonetics Inc.). Add either vitronectin or osteopontin (33 μl) at 0.0125-100 μg/ml to the lower wells of a disposable chemotaxis chamber, and then assemble using the preframed filter. The cell suspension (45 μl) was added to a polypropylene plate containing 5 μl of test agent at different concentrations and incubated for 10 minutes at 22° C. Add 25 μl of cell/test agent suspension to the upper filter wells then incubate overnight (22 hours at 37° C.) in a humidified cell culture incubator. After the overnight incubation, non-migrated cells and excess media were gently removed using a 12 channel pipette and a cell scraper. The filters were then washed twice in PBS (no Ca^+2 or Mg^+2) and fixed with 1% formaldehyde. Membranes of migrated cells were permeated with Triton X-100 (0.2%) then washed 2-3 times with PBS. […] Chemotaxis was quantitatively determined by fluorescence detection using a Cytofluor II (530 excitation/590 emission).

Values after ≈ are worked out from the molar mass of the structure shown. “Also recorded” adds a separate entry of the source.

By solubility is commonly meant the concentration that dissolves in the medium under given conditions. In turn, `CCNC(Cc1cc(I)c(Oc2cc(I)c(O)c(I)c2)c(I)c1)C(=O)OCC` (centres unmarked) [PRIAB20, ethyl-2-(ethylamino)-3-[4-(4-hydroxy-3,5-diiodophenoxy)-3,5-diiodophenyl]propanoate] registered a solubility in “Solubility” of 1000 µM (≈ 833 µg/mL). In other words, the millimolar range.

A word on the melting point: it is the temperature of the solid-liquid transition. Take `CC(C)(C)OC(=O)NC(Cc1cc(I)c(Oc2cc(I)c(O)c(I)c2)c(I)c1)C(=O)O` (centres unmarked) [PRIAB1, 2-[(tert-butoxycarbonyl)amino]-3-[4-(4-hydroxy-3,5-diiodophenoxy)-3,5-diiodophenyl]propanoic acid]: the melting point came out at 212 °C. As to `COc1cccc(-c2cc(=O)c3ccccc3o2)c1N` [PD 98059], the “inhibition of T4-induced ERK1/2 activation” value in data set [1] is listed as “inhibited; also recorded: blocked by both inhibitors”. In data set [2] (PD 98059), the “inhibition of angiogenesis induced by FGF2 (1 μg/mL)” value is “effectively blocked; also recorded: also inhibited”. For the same molecule, in [2] (PD 98059 3 μmol/L), the “inhibition of angiogenesis stimulated by T4 (0.1 μmol/L) and T3 (1 nmol/L) together” value is reported as “completely blocked; also recorded: fully inhibited”. The “block of the pro-angiogenesis effect of T4 or FGF2” value in [2] (PD 98059 at 0.8-8 μg) is given as “totally blocked”. In addition, the “inhibition of the pro-angiogenesis action of T3, T4 or T4-agarose” value in [3] is “significantly (P<0.01) blocked”. For `COc1cccc2c1C(=O)c1c(O)c3c(c(O)c1C2=O)C[C@@](O)(C(=O)CO)C[C@@H]3O[C@H]1C[C@H](N)[C@H](O)[C@H](C)O1` [doxorubicin], the MTD in data set [4] was 2.5 mg/kg. The “effect on tumor growth” value in [5] is “no noticeable effect”. On to `CCO` [ethanol], for which, in the data set on NG108-15 cells, the IC50 fell in the range of 5 to 10 mM.

B1: Vitronectin: extracellular matrix protein used as migration gradient (protein, UniProt P04004 20-478, looked up)
Vitronectin: DQESCKGRCTEGFNVDKKCQCDELCSYYQSCCTDYTAECKPQVTRGDVFTMPEDEYTVYDDGEEKNNATVHEQVGGPSLTSDLQAQSKGNPEQTPVLKPEEEAPAPEVGASKPEGIDSRPETLHPGRPQPPAEEELCSGKPFDAFTDLKNGSLFAFRGQYCYELDEKAVRPGYPKLIRDVWGIEGPIDAAFTRINCQGKTYLFKGSQYWRFEDGVLDPDYPRNISDGFDGIPDNVDAALALPAHSYSGRERVYFFKGKQYWEYQFQHQPSQEECEGSSLSAVFEHFAMMQRDSWEDIFELLFWGRTSAGTRQPQFISRDWHGVPGQVDAAMAGRIYISGMAPRPSLAKKQRFRHRNRKGYRSQRGHSRGRNQNSRRPSRATWLSLFSSEESNLGANNYDDYRMDWLVPATCEPIQSVFFFSGDKYYRVNLRTRRVDTVDPPYPRSIAQYWLGCPAPGHL
With B1, the “Mean EC Migration (Fluorescence Units) + SD” value in data set [6] was 6,116 ± 185 Fluorescence Units.
